In US8748369B2, “Use of targeted nitroxide agents in bone healing” (University of Pittsburgh-Of the Commonwealth System of …, priority 2009, dated 2014):
Where a SMILES comes first, the peptide text is derived from it. [ ]: non-standard residue; d: D form. The star is where a group is joined. NH(TEMPO-4-yl) = CC1(C)CC(N*)CC(C)(C)N1[O]; Orn = NCCC[C@H](N)C(=O)O; Cbz = O=C(OCc1ccccc1)*; Boc = CC(C)(C)OC(=O)*

Columns and labels:
NOD/SCID mice = test: Proposed: human marrow stromal cell seeding into irradiated limbs of NOD/SCID mice; format: in vivo, mouse; conditions: MnSOD-PL prior to cell infusion; JP4-039 daily after cell transplantation
From the text: The following can be used to select and optimize the best GS-nitroxide JP4-039 (radiation damage mitigator drug) that can enhance human bone marrow stromal cell and fresh human stromal cell line seeding efficiency into irradiated limbs of NOD/SCID mice. MnSOD-overexpressing cells are a positive control.
A. Experiments with KM101-MnSOD/ds-red (control KM101-ds-red) clonal cell lines. Groups of 12 NOD/SCID mice receive 300 cGy total body irradiation (low dose leg) and a 1000 cGy boost to the left hind leg (high dose leg), then 24 hours later intravenous injection of 1×10^5 or 1×10^6 cells of each cell line (groups 1 and 2). Group 3 is mice that receive MnSOD-PL intravenously 24 hours prior to irradiation and then injection of KM101-MnSOD/ds-red. […] This experiment may be conducted essentially as described above (A), with all groups, but with a sub-group receiving JP4-039 (24 hours) after radiation (same day as cell lines are injected, or a sub-group receiving intraperitoneal JP4-039 (daily or weekly after cell line transplantation). Cells may be explanted from the high dose and low dose irradiated femurs at days 7, 14, 21, and cultured in vitro for human stromal colony forming progenitor cells (CFU-F). The percent and total number of human cells entering the high dose and low dose irradiated limbs can be quantitated by cell sorting for ds-red. […]

[1] = test system: mouse embryonic cells (MEC); test: ActD-induced apoptosis in MECs (PS externalization, caspase-3, DNA fragmentation); format: cell-based
From the text: Cells that annexin V-positive and PI-negative were considered apoptotic.

[2] = test system: mouse embryonic cells, mitochondria; test: EPR-based analysis of integration and distribution of nitroxides (Example 9); format: cell-based; conditions: 10 μM nitroxides for 10 min
Description: To compare the integration efficiency, mouse embryonic cells (1×10^7/mL) were incubated with 10 μM nitroxides for 10 min. ESR spectra of nitroxide radicals in the incubation medium, cell suspension or mitochondrial suspension were recorded after mixing with acetonitrile (1:1 v/v) after 5-min incubation with 2 mM K3Fe(CN)6 using JEOL-RE1X EPR spectrometer under the following conditions: 3350 G center field; 25 G scan range; 0.79 G field modulation, 20 mW microwave power; 0.1 s time constant; 4 min scan time. Integration efficiency was calculated as (Einitial−Emedium)/Einitial×100%. Mitochondria were isolated using a mitochondria isolation kit (Pierce, Rockford, Ill.) according to the manufacturer's instruction. Amounts of nitroxide radicals integrated into mitochondria were normalized to the content of cytochrome c oxidase subunit IV.

mouse embryonic cells = test: Gamma irradiation induced apoptosis (cytochrome c release, PS externalization); format: cell-based
Description: Externalization of PS was analyzed by flow cytometry using annexin-V kit. Briefly, harvested cells were stained with annexin-V-FITC and PI for 5 min in dark prior to flow cytometry analysis. Ten thousand events were collected on a FACScan flow cytometer (Becton-Dickinson) supplied with CellQuest software.
(A) XJB-5-125 blocks γ-irradiation induced accumulation of cytochrome c in the cytosol of mouse embryonic cells. (B) Densitometry ratio of cytochrome c/actin. Semi-quantitation of the bands was carried out by densitometry using Labworks Image Acquisition and Analysis Software (UVP, Upland, Calif.). The level of cytochrome c release was expressed as the mean densitometry ratio of cytochrome c over actin. (C) Dose (5, 10 and 20 μM) dependent radioprotective effect of XJB-5-125 (pre-treatment) on γ-irradiation (10 Gy) induced phosphatidylserine (PS) externalization. After 48 h post-irradiation incubation, cells were harvested and stained with annexin-V-FITC and propodium iodide (PI) prior to flow cytometry analysis. (D) Time (2, 3, 4, 5, and 6 h) dependent radioprotective effect of XJB-5-125 (20 μM) on γ-irradiation (10 Gy) induced PS externalization (48 h post irradiation) in mouse embryonic cells. […] Externalization of PS was analyzed 72 h post-irradiation exposure. […]

[3] = test system: 32D cl 3 murine hematopoietic cells; test: Irradiation survival curves of 32D cl 3 cells; format: cell-based, mouse; conditions: cells incubated in compound
Description: FIG. 16 illustrates the effect of GS conjugated nitroxide, XJB-5-125, on gamma-irradiation dose survival curves of 32D cl 3 murine hematopoietic cells.
Irradiation survival curves were performed on cells from the 32D cl 3 mouse hematopoietic progenitor cell line, incubated in 10 μM JP4-039 for 1 hour before irradiation, or plated in methycellulose containing 10 μM JP4-030 after irradiation. Cells were irradiated from 0 to 8 Gy, plated in 0.8% methycellulose containing media, and incubated for 7 days at 37° C. Colonies of greater than 50 cells were counted and data analyzed by linear quadratic and single-hit, multi-target models.

SMILES | engraftment of KM101 stromal cell lines (NOD/SCID mice) | concentration range of activity in cells (dose-dependent attenuation of ActD-induced PS externalization) [1] [µM] | integration into cells and mitochondria compared with non-conjugated 4-amino-TEMPO [2] | gamma irradiation induced apoptosis (mouse embryonic cells; 10 Gy) | γ-irradiation induced accumulation of cytochrome c in the cytosol (mouse embryonic cells; mouse embryonic cells) | Do of gamma-irradiation survival curve [3] [Gy] | n (shoulder on the survival curve) [3]
CC(C)C[C@@H](/C=C/CC(=O)NC1CC(C)(C)N([O])C(C)(C)C1)NC(=O)OC(C)(C)C [JP4-039, (S,E)-5-(tert-Butoxycarbonylamino)-7-methyloct-3-enoic acid-TEMPO] | facilitate improved stability of engraftment | – | – | – | – | – | –
CC(C)C[C@H](NC(=O)OC(C)(C)C)C(=O)N[C@H](Cc1ccccc1)C(=O)N1CCC[C@H]1C(=O)N[C@H](C(=O)N[C@@H](CCCNC(=O)OCc1ccccc1)C(=O)NC1CC(C)(C)N([O])C(C)(C)C1)C(C)C [XJB-5-125] (Boc-L[dF]PV[Orn](Cbz)-{NH(TEMPO-4-yl)}) | – | 2.5 to 20 | much more efficiently | protects | blocks | 1.138 | 18.24
